{"source": "BindingDB's records for doi:10.1021/jm025558r", "about": "(Friedrich-Alexander University, 2002)", "key": {"[1]": {"target": "D(1) dopamine receptor (Sus scrofa)", "assay": "Binding affinity for porcine Dopamine receptor D1 by [3H]-SCH- 23390 displacement."}, "[2]": {"target": "5-hydroxytryptamine receptor 1A (Sus scrofa)", "assay": "Displacement of [3H]- 8-OH-DPAT from porcine 5-hydroxytryptamine 1A receptor"}}, "note": "pKi: −log10 of the molar value."}
{"smiles": "O=C(NCCCCN1CCN(c2cccc(Cl)c2Cl)CC1)c1cc2ccccc2[te]1", "note": "[Benzo[b]tellurophene-2-carboxylic acid {4-[4-(2,3-dichloro-phenyl)-piperazin-1-yl]-butyl}-amide]", "values": [{"measurement": "pKi", "setting": "[1]", "value": 5.85}, {"measurement": "pKi", "setting": "[2]", "value": 6.90}]}
